Several values for one entry are separate records, joined by “and”; a condition that tells them apart may be missing. Equal values may be shown once. Toxic doses and inconclusive results are not listed.
System: P388 leukemia ip, CD2F1 mice, survival T/C
Assay: NCI In Vivo Anticancer Drug Screen. Data for tumor model P388 Leukemia (intraperitoneal) in CD2F1 (CDF1) mice
Conditions: endpoint: median survival time, higher = longer survival
How it was run: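 Mice carrying the transplanted tumor received test compound or vehicle. Survival was recorded in each group, and the value is the treated-group measurement divided by that of the vehicle-treated control group.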

[1] = dose: 25.0 mg/kg/injection, schedule: Q01DX005 (ip), vehicle: saline
[2] = dose: 50.0 mg/kg/injection, schedule: Q01DX005 (ip), vehicle: saline
[3] = dose: 60.0 mg/kg/injection, schedule: Q01DX005 (ip), vehicle: Klucel (hydroxypropylcellulose) (HPC)
[4] = dose: 120.0 mg/kg/injection, schedule: Q01DX005 (ip), vehicle: Klucel (hydroxypropylcellulose) (HPC)
[5] = dose: 240.0 mg/kg/injection, schedule: Q01DX005 (ip), vehicle: Klucel (hydroxypropylcellulose) (HPC)
[6] = dose: 60.0 mg/kg/injection, schedule: Q01DX005 (ip), vehicle: saline with Tween-80
[7] = dose: 120.0 mg/kg/injection, schedule: Q01DX005 (ip), vehicle: saline with Tween-80
[8] = dose: 240.0 mg/kg/injection, schedule: Q01DX005 (ip), vehicle: saline with Tween-80
[9] = dose: 50.0 mg/kg/injection, schedule: Q01DX005 (ip), vehicle: saline with Tween-80
[10] = dose: 100.0 mg/kg/injection, schedule: Q01DX005 (ip), vehicle: saline with Tween-80
[11] = dose: 200.0 mg/kg/injection, schedule: Q01DX005 (ip), vehicle: saline with Tween-80
[12] = dose: 12.5 mg/kg/injection, schedule: Q01DX009 (ip), vehicle: distilled water + Tween-80

CCCCC[C@@H]1CCCC2C1CC[C@@H](CCCCCI)N2C(=O)OCC(Cl)(Cl)Cl (stereo not given in full)
T/C (dose: 100.0 mg/kg/injection, schedule: Q04DX002 (ip), vehicle: saline with Tween-80): 100 % of control | T/C (dose: 200.0 mg/kg/injection, schedule: Q04DX002 (ip), vehicle: saline with Tween-80): 100 % of control | T/C (dose: 400.0 mg/kg/injection, schedule: Q04DX002 (ip), vehicle: saline with Tween-80): 105 % of control

N=C(N)c1ccc2oc(/C=C/c3cc4ccc(C(=N)N)cc4o3)cc2c1
T/C (dose: 400.0 mg/kg/injection, schedule: Q04DX003 (ip), vehicle: suspension in saline): 150 % of control

CCN(CC)CCCSCCCNc1cc(OC)cc2cccnc12
T/C (dose: 12.5 mg/kg/injection, schedule: Q01DX005 (ip), vehicle: saline): 105 % of control | T/C [1]: 100 % of control | T/C [2]: 99 % of control and 91 % of control

COC(=O)C1(C(=O)OC)OC(c2ccc(OC)cc2)[C@H]2C(=O)N(C)C(=O)[C@H]21 (stereo not given in full)
T/C [3]: 92 % of control | T/C [4]: 92 % of control | T/C [5]: 89 % of control

N#Cc1ncc(Cl)c2ccccc12
T/C (dose: 50.0 mg/kg/injection, schedule: Q01DX009 (ip), vehicle: suspension in saline): 90 % of control | T/C (dose: 100.0 mg/kg/injection, schedule: Q01DX009 (ip), vehicle: suspension in saline): 87 % of control | T/C (dose: 200.0 mg/kg/injection, schedule: Q01DX009 (ip), vehicle: suspension in saline): 97 % of control

Cn1c(=O)c2[nH]c(C(C)(C)O)nc2n(C)c1=O
T/C [6]: 101 % of control | T/C [7]: 104 % of control | T/C [8]: 101 % of control

CC(NCCNC(C)C(=O)O)C(=O)O (stereo not given)
T/C [2]: 101 % of control | T/C (dose: 100.0 mg/kg/injection, schedule: Q01DX005 (ip), vehicle: saline): 103 % of control | T/C (dose: 200.0 mg/kg/injection, schedule: Q01DX005 (ip), vehicle: saline): 100 % of control

COC1CC(CC2CCC(C)C(C(C)C(=O)O)O2)OC2(OC(C)(C3CCC(C)(C4OC(C5OC(O)(CO)C(C)CC5C)CC4C)O3)CC2C)C1C (stereo not given)
T/C (dose: 0.08 mg/kg/injection, schedule: Q01DX009 (ip), vehicle: Klucel (hydroxypropylcellulose) (HPC)): 103 % of control | T/C (dose: 0.15 mg/kg/injection, schedule: Q01DX009 (ip), vehicle: Klucel (hydroxypropylcellulose) (HPC)): 109 % of control | T/C (dose: 0.31 mg/kg/injection, schedule: Q01DX009 (ip), vehicle: Klucel (hydroxypropylcellulose) (HPC)): 104 % of control and 105 % of control and 107 % of control | T/C (dose: 2.5 mg/kg/injection, schedule: Q01DX009 (ip), vehicle: Klucel (hydroxypropylcellulose) (HPC)): 102 % of control and 123 % of control and 91 % of control | T/C (dose: 5.0 mg/kg/injection, schedule: Q01DX009 (ip), vehicle: Klucel (hydroxypropylcellulose) (HPC)): 100 % of control

CCNC(=O)/C=C(C)/C=C/C=C(C)/C=C/c1c(C)cc(OC)c(C)c1C
T/C (dose: 25.0 mg/kg/injection, schedule: Q01DX005 (ip), vehicle: Klucel (hydroxypropylcellulose) (HPC)): 86 % of control | T/C (dose: 50.0 mg/kg/injection, schedule: Q01DX005 (ip), vehicle: Klucel (hydroxypropylcellulose) (HPC)): 90 % of control | T/C (dose: 100.0 mg/kg/injection, schedule: Q01DX005 (ip), vehicle: Klucel (hydroxypropylcellulose) (HPC)): 100 % of control and 101 % of control | T/C (dose: 200.0 mg/kg/injection, schedule: Q01DX005 (ip), vehicle: Klucel (hydroxypropylcellulose) (HPC)): 108 % of control

Oc1c(-c2ccccc2)nn(O)c1-c1ccccc1
T/C (dose: 12.5 mg/kg/injection, schedule: Q01DX009 (ip), vehicle: Klucel (hydroxypropylcellulose) (HPC)): 106 % of control | T/C (dose: 25.0 mg/kg/injection, schedule: Q01DX009 (ip), vehicle: Klucel (hydroxypropylcellulose) (HPC)): 100 % of control | T/C (dose: 50.0 mg/kg/injection, schedule: Q01DX009 (ip), vehicle: Klucel (hydroxypropylcellulose) (HPC)): 95 % of control

Cn1cnc([N+](=O)[O-])c1Sc1cn(C2CC(O)C(CO)O2)c(=O)[nH]c1=O (stereo not given)
T/C [3]: 101 % of control | T/C [4]: 102 % of control | T/C [5]: 107 % of control

NC(=O)N/N=C1/CCCCCC1(c1ccccc1)c1ccccc1
T/C (dose: 30.0 mg/kg/injection, schedule: Q01DX005 (ip), vehicle: Klucel (hydroxypropylcellulose) (HPC)): 95 % of control | T/C [3]: 89 % of control | T/C [4]: 91 % of control

CN1C(=O)CC2C(=O)N(Cc3ccccc3)C(=O)C2C1=O (stereo not given)
T/C [9]: 101 % of control | T/C [10]: 101 % of control | T/C [11]: 96 % of control

CCc1ncnc2cc(OCC3CO3)c(OC)cc12 (stereo not given)
T/C (dose: 6.25 mg/kg/injection, schedule: Q01DX005 (ip), vehicle: saline): 114 % of control | T/C [1]: 155 % of control and 158 % of control | T/C [2]: 154 % of control and 158 % of control and 182 % of control

COc1ccc(/C=C/C(=N/Nc2ccccc2)C(C)CN(C)C)cc1 (stereo not given)
T/C [6]: 101 % of control | T/C [7]: 95 % of control

CNC(=O)OCc1c(COC(=O)NC)c(-c2ccc(Cl)cc2)n(C)c1C
T/C (dose: 6.25 mg/kg/injection, schedule: Q01DX009 (ip), vehicle: distilled water + Tween-80): 155 % of control | T/C [12]: 150 % of control and 153 % of control

C/C(CC(C)C)=N\NC(=O)CNC(=O)c1ccccc1
T/C [6]: 100 % of control | T/C [7]: 106 % of control | T/C [8]: 95 % of control

C/C=C(/C)C(=O)O[C@H]1C[C@H](C(C)C)c2cc(C)c(O)cc2[C@H]1C
T/C (dose: 57.5 mg/kg/injection, schedule: Q01DX001 (ip), vehicle: Klucel (hydroxypropylcellulose) (HPC)): 100 % of control | T/C (dose: 115.0 mg/kg/injection, schedule: Q01DX001 (ip), vehicle: Klucel (hydroxypropylcellulose) (HPC)): 97 % of control | T/C (dose: 230.0 mg/kg/injection, schedule: Q01DX001 (ip), vehicle: Klucel (hydroxypropylcellulose) (HPC)): 99 % of control

Nc1ccc2c(NCCCCCCNc3c4ccccc4nc4cc(N)ccc34)c3ccccc3nc2c1
T/C (dose: 0.63 mg/kg/injection, schedule: Q01DX009 (ip), vehicle: other): 122 % of control

COC1CC(OC2CCC3(C)C(CCC45CCC(C6=CC(=O)OC6)C(C)(CCC43)C5=O)C2)OC(C)C1O (stereo not given)
T/C (dose: 1.56 mg/kg/injection, schedule: Q01DX005 (ip), vehicle: Klucel (hydroxypropylcellulose) (HPC)): 90 % of control | T/C (dose: 3.12 mg/kg/injection, schedule: Q01DX005 (ip), vehicle: Klucel (hydroxypropylcellulose) (HPC)): 97 % of control | T/C (dose: 6.25 mg/kg/injection, schedule: Q01DX005 (ip), vehicle: Klucel (hydroxypropylcellulose) (HPC)): 100 % of control | T/C (dose: 12.5 mg/kg/injection, schedule: Q01DX005 (ip), vehicle: Klucel (hydroxypropylcellulose) (HPC)): 88 % of control and 91 % of control

CCOC(=O)Cc1cc2cc(=O)[nH]cc2cc1C
T/C [12]: 94 % of control | T/C (dose: 25.0 mg/kg/injection, schedule: Q01DX009 (ip), vehicle: distilled water + Tween-80): 93 % of control | T/C (dose: 50.0 mg/kg/injection, schedule: Q01DX009 (ip), vehicle: distilled water + Tween-80): 90 % of control | T/C (dose: 200.0 mg/kg/injection, schedule: Q01DX009 (ip), vehicle: distilled water + Tween-80): 87 % of control

O=C(NC(=O)c1ccccc1F)Nc1ccc(C(O)(C(F)(F)F)C(F)(F)F)cc1
T/C [9]: 104 % of control | T/C [10]: 98 % of control | T/C [11]: 100 % of control

— PubChem BioAssay AID330 (DTP/NCI, 2004)
